Reference: US11065266B2, “Method of treating melanoma using an inhibitor of an atypical protein kinase C” (UNIVERSITY OF SOUTH FLORIDA, priority 2016, dated 2021)

Key:
MeWo cells = test: Western blot of protein levels; type: cell-based, human; parameters: concentration or dose not given beside the values; conditions: vs respective control
Description: Approximately 2×10^5 cells from PCS-200-013 and SK-MEL-2 cell lines were plated in T25 flasks until they become 70% confluent. Confluent cells were semi-synchronized by contact inhibition and serum starvation for 48 hrs. Subsequently, cells were incubated with serum and atypical inhibitors. The cells were removed at specific times and were placed in ice to terminate the incubation. Cells were washed at least two times with ice cold DPBS. Cells were then scrapped, re-suspended and sonicated in 500 μL of homogenization buffer (50 mM HEPES—pH 7.5), 150 mM NaCl, 0.1% Triton X, 1 mM EDTA (ethylenediaminetetraacetic acid), 2 mM EGTA [glycol-bis (2-aminoethylether)-N, N, N′,N′-tetraacetic acid], 0.1 mM orthovanadate, 1 mM NaF, 2 mM PMSF (phenylmethylsulphonylfluoride), 1 mM DTT (dithiothreitol) and 0.15 U/mL aprotinin. Cell suspensions was then sonicated and centrifuged at 100,000 g for 30 minutes. The protein concentrations was determined using Bradford method. Subsequently, approximately 800 μg of proteins were immunoprecipitated with the antibody against desired protein. In some cases cell lysates were suspended with anti-HFS-1 antibody, rocking overnight at 4° C. Agarose beds were added after 24 hrs. Then the complex of cell lysate-anti HSF-1 antibody-agarose beads was rocked at 4° C. for 2 hrs. After washing the beads, approximately […] the sample loading buffer was added to dissolve all the protein on the beads. Proteins were then separated on sodium dodecyl sulfate polyacrylamide gel electrophoresis (SDS-PAGE) and transblotted followed by immunoblotting with anti-PKC-ζ or anti-PKC-ι or anti-HSF-1 antibody or phosphospecific antibodies. Immunoreactive bands were visualized with enhanced chemiluminescence.
Western blots (WB) were performed to investigate the effect of ACPD and DNDA on the expression of aPKCs on malignant melanoma. […] DNDA decreased the levels of PKC-ι by 52%, pPKC-ι by 33% in SK-MEL-2 cells and by 27% of PKC-ι and pPKC-ι by 20% in MeWo cells.
DNDA reduced the levels of PKC-ζ by 33%, pPKC-ζ by only 17% in SK-MEL-2 cells and by 60% of PKC-ζ and pPKC-ζ by 29% in MeWo cells. All values (percent) were calculated compared to their respective control in Western blot. B-actin was used as the internal control to ensure that equal amounts of proteins were loaded in each lane in SDS-PAGE.

PKM-ζ = target: T1, PKM-ζ (Homo sapiens, UniProt Q05513); test: PKC activity assay (phosphorylation of myelin basic protein); type: biochemical
T1 construct: proteolytic cleavage of N-regulatory domain and the C-terminal catalytic domain of PKC-ζ
T1 sequence (Q05513 1-409 isoform Q05513-2): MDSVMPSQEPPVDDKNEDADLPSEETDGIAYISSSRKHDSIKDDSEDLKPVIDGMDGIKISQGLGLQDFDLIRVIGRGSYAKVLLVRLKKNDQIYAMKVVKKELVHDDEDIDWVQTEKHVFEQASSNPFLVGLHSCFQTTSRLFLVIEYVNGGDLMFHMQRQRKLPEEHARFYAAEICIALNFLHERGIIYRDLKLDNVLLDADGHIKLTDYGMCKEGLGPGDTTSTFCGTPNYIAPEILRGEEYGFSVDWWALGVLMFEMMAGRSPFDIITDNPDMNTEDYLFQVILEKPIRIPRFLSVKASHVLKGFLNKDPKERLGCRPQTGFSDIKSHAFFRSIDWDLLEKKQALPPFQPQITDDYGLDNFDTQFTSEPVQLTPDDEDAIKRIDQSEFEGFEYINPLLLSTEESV
Description: (§1) PKC activity assay was conducted by monitoring the phosphorylation of myelin basic protein (MBP), a known substrate for PKCs. The detailed procedure was performed as described in Ling, D. S. F. et al. (2002) for PKC-ι and PKM-ζ [37].
(§2) PKC activity assay was performed by suspending 0.5 μg of PKC-ζ and PKC-ι separately in 200 μL of PKC kinase buffer to test the ability of PKC-ζ and PKC-ι of phosphorylating and immunoprecipitating HSF-1 of the SK-MEL-2 cells and PCS-200-013 cells. The PKC kinase buffer composition was 20 mM Tris-HCL (pH of 7.5), 6 mM Magnesium acetate, phosphotidylserine ([…], 20 μL of 10 mg/mL solution), ATP (0.0045 mg/mL) and also the desired inhibitors, wherever appropriate (ICA-1, ACPD, DNDA and ζ-Stat). The inhibitor was used in two different concentrations as 1 μM and 0.5 μM. The reaction was terminated after incubation for 5 minutes at 30° C. by addition of sample loading buffer. Samples were then separated by PAGE and immunoblotted against anti-PKC antibodies (either PKC-ι or PKC-ζ) and against phosphospecific HSF-1 antibodies. Samples were also probed against anti-HSF-1 antibody to determine that the protein immunoprecipitaed was HSF-1. The signal was visualized using enhanced chemiluminescence.
(§3) The activity of DNDA (FIG. 2) was determined for a series of concentrations (0-20 μM) using recombinant active PKC-ι or PKM-ζ in the presence of MBP (5 μg). The maximum inhibition of PKC-ζ was 40% and reached at 2 (P≤0.05). Inhibition remained the same upon increasing the concentration PKM-ζ is an active form of PKC-ζ found in human brain due to proteolytic cleavage of N-regulatory domain and the C-terminal catalytic domain of PKC-ζ [27-29].

recombinant active PKC-ι = target: T2, recombinant active PKC-ι (Homo sapiens, UniProt P41743); test: as above; type: biochemical
T2 sequence (P41743 1-596): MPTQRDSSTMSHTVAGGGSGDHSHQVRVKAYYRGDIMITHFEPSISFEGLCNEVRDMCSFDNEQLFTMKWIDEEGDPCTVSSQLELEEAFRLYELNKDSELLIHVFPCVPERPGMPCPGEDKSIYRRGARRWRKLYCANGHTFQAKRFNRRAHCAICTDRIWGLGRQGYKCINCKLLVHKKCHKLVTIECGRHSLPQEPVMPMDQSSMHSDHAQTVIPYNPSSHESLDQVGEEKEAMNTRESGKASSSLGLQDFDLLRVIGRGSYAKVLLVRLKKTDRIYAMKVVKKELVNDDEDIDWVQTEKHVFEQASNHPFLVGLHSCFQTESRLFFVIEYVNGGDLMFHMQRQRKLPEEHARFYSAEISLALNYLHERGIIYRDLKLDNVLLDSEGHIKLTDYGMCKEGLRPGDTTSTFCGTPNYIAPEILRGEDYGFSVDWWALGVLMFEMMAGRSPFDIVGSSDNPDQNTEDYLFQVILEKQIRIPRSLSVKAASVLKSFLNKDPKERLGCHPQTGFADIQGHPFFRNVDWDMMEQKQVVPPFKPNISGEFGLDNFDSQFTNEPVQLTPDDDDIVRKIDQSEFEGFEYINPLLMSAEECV
Description: as §1, §2, §3

| SMILES | reduction of PKC-ζ level (MeWo cells) [%] | reduction of PKC-ι level (MeWo cells) [%] | reduction of pPKC-ζ level (MeWo cells) [%] | reduction of pPKC-ι level (MeWo cells) [%] | maximum inhibition of PKC-ζ (PKM-ζ; reached at 2 (unit not given), series 0-20 μM, MBP 5 μg) [%] | inhibition at 0.5 µM (recombinant active PKC-ι; reached at 0.5 μM, series 0-20 μM, MBP 5 μg, read-out: maximum inhibition of PKC-ι) [%] | inhibition of PKM-ζ activity (PKM-ζ; kinase activity assay) | effect on PKC-ι in kinase activity assay (recombinant active PKC-ι) |
| --- | --- | --- | --- | --- | --- | --- | --- | --- |
| CC(=O)C1=C(O)CCC1=O [ACPD, 2-acetyl-1,3-cyclopentanedione] | 42 | 46 | 23 | 26 |  |  |  |  |
| Nc1c(S(=O)(=O)O)cc2cc(S(=O)(=O)O)ccc2c1N [DNDA, 3,4-diamino-2,7-naphthalenedisulfonic acid] | 60 | 27 | 29 | 20 | 40 | ~15 |  |  |
| O=S(=O)(O)c1cc(O)c2c(S(=O)(=O)O)cc(S(=O)(=O)O)cc2c1 [ζ-Stat, 8-hydroxy-1,3,6-naphthalenetrisulfonic acid] |  |  |  |  |  |  | more than 50% | does not effect |
